Test results published in EP4603105A1, “PHARMACEUTICAL COMPOSITION CONTAINING CYCLIC COMPOUND HAVING SELECTIVE KRAS INHIBITORY EFFECT AGAINST HRAS AND NRAS” (CHUGAI SEIYAKU KABUSHIKI KAISHA, priority 2022, dated 2024).
*1 amine or outer side, *2 acyl side, *3 side chain or, on linkers, in order; H or OH if unused. Where a SMILES comes first, the peptide text is derived from it. Bridges are numbered along the chain shown (N, C = ends). [ ]: non-standard residue; d: D form. The star is where a group is joined. hPhe(3-Cl-4-CF3) = N[C@@H](CCc1ccc(C(F)(F)F)c(Cl)c1)C(=O)O; X24 = CC(C)CN([C@@H](Cc1ccc(C(F)(F)F)cc1)C(=O)[*:2])[*:1]; NPrPhe(4-CF3) = CCCN[C@@H](Cc1ccc(C(F)(F)F)cc1)C(=O)O; NEtPhe(4-CF3) = CCN[C@@H](Cc1ccc(C(F)(F)F)cc1)C(=O)O; hPhe(3,4-Cl2) = N[C@@H](CCc1ccc(Cl)c(Cl)c1)C(=O)O; X41 = CCCN([C@@H](Cc1ccc(OC)cc1)C(=O)[*:2])[*:1]; NEtPhe(4-Me) = CCN[C@@H](Cc1ccc(C)cc1)C(=O)O; NMeGly(cPent) = CN[C@H](C(=O)O)C1CCCC1; Pro(4,4-F2) = O=C(O)[C@@H]1CC(F)(F)CN1; Hyp = O=C(O)[C@@H]1C[C@@H](O)CN1; Piperidide(4-Me) = CC1CCN(*)CC1; NMeD = CN[C@@H](CC(=O)O)C(=O)O; NMeL = CN[C@@H](CC(C)C)C(=O)O; Morpholide = C1CN(*)CCO1; NMeA = CN[C@@H](C)C(=O)O; NMeAib = CNC(C)(C)C(=O)O; Nle = CCCC[C@H](N)C(=O)O; Piperidide = C1CCN(*)CC1; Ac5c = NC1(C(=O)O)CCCC1; Aze = O=C(O)[C@@H]1CCN1; NEtG = CCNCC(=O)O; Sar = CNCC(=O)O

Legend:
[1] = molecular target: GDP-bound NRAS wild-type protein (Homo sapiens, UniProt P01111); experiment: Binding to NRAS by surface plasmon resonance (SPR), KD and KD ratio to KRAS
Outline: (§1)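 Single-cycle kinetics on GDP-loaded biotin-Avi RAS captured to ~100–300 RU; 75 s ascending injections, 100 µL/min, 30°C. HBS pH 7.4 + 10 mM MgCl2/10 µM GDP/4% DMSO. 1:1 fit, KD.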

HRAS wild-type protein = HRAS wild-type protein (Homo sapiens, UniProt P01112); experiment: Binding to HRAS by surface plasmon resonance (SPR), KD and KD ratio to KRAS
Outline: as §1

[2] = tested on: human lung cancer strain NCI-H441; format: cell-based
Outline: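 Proliferation was scored by […] measured after the reagent was added to cultures kept at 37°C in 5% carbon dioxide.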

[3] = ratio of KD for GDP-bound NRAS wild-type protein to KD for KRAS
[4] = ratio of KD for HRAS wild-type protein to KD for KRAS
[5] = ratio of the KD value with respect to GDP-bound NRAS wild-type protein to the KD value with respect to KRAS
[6] = ratio of the KD value with respect to HRAS wild-type protein to the KD value with respect to KRAS

GDP-bound NRAS wild-type protein, sequence (P01111 whole entry): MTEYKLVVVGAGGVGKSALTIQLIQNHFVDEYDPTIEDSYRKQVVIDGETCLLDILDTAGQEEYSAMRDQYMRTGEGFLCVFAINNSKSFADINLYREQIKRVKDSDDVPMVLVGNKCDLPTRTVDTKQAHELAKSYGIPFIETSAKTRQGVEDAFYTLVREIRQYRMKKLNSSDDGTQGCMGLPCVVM
HRAS wild-type protein, sequence (P01112 whole entry): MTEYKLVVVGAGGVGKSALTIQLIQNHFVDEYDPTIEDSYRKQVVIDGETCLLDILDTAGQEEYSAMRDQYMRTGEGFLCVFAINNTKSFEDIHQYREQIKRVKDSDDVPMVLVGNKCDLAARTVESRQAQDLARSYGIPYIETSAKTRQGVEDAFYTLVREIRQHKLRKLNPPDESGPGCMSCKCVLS

Structure (SMILES) | IC50 [2] [nM] | NRAS /KRAS [1, 3] | HRAS /KRAS (HRAS wild-type protein; [4]) | NRAS /KRAS [1, 5] | HRAS /KRAS (HRAS wild-type protein; [6])
CCCN1C(=O)CN(C)C(=O)CN(CC)C(=O)[C@H]([C@@H](C)CC)NC(=O)[C@H](CC(C)C)N(C)C(=O)C[C@@H](C(=O)N2CCOCC2)NC(=O)[C@H](C2CCCC2)N(C)C(=O)C2(CCCC2)NC(=O)[C@@H]2C[C@@H](OCC)CN2C(=O)[C@H](CCc2ccc(C(F)(F)F)c(Cl)c2)NC(=O)CN(C)C(=O)[C@@H]1Cc1ccc(C(F)(F)F)cc1 [PP0335] ([NMeL]I[NEtG][Sar][NPrPhe(4-CF3)][Sar][hPhe(3-Cl-4-CF3)][Hyp](Et)[Ac5c][NMeGly(cPent)]D-Morpholide; lactam N-11) | 41.7 | B (a compound having 3 or more and less than 10 is denoted as B) | C (A compound having a KD ratio of 0.1 or more and less than 3 is denoted as C) | – | –
CCCC[C@@H]1NC(=O)[C@H](CCc2ccc(C(F)(F)F)c(Cl)c2)NC(=O)CN(C)C(=O)[C@H](Cc2ccc(C)cc2)N(CC)C(=O)[C@@H]2CCN2C(=O)[C@H](C)N(C)C(=O)[C@H]([C@@H](C)CC)NC(=O)[C@H](CC(C)C)N(C)C(=O)C[C@@H](C(=O)N2CCCCC2)N(C)C(=O)[C@H](CC(C)C)NC(=O)C(C)(C)N(C)C1=O [PP0048] ([NMeL]I[NMeA][Aze][NEtPhe(4-Me)][Sar][hPhe(3-Cl-4-CF3)][Nle][NMeAib]L[NMeD]-Piperidide; lactam N-11) | 464 | C (A compound having a KD ratio of 0.1 or more and less than 3 is denoted as C) | C (A compound having a KD ratio of 0.1 or more and less than 3 is denoted as C) | – | –
CCC[C@H]1C(=O)N[C@@H]([C@@H](C)CC)C(=O)N(C)CC(=O)N(C)[C@H]2C/C=C\CCN(C2=O)[C@@H](Cc2ccc(C(F)(F)F)cc2)C(=O)N(C)CC(=O)N[C@@H](CCc2cc(Cl)c(C(F)(F)F)c(Cl)c2)C(=O)N2C[C@H](OCC)C[C@H]2C(=O)NC2(CC(C)(C)C2)C(=O)N(C)[C@@H](C2CCCC2)C(=O)N(C)[C@H](C(=O)N(C)C)CC(=O)N1C [PP2859] | 6.8 | A (a compound having 10 or more and less than 20 is denoted as A) | A (a compound having 10 or more and less than 20 is denoted as A) | – | –
CC[C@H](C)[C@@H]1NC(=O)[C@H](CC(C)C)N(C)C(=O)C[C@@H](C(=O)N2CCOCC2)N(C)C(=O)[C@H](C2CCCC2)N(C)C(=O)C2(CCCC2)NC(=O)[C@@H]2CCCN2C(=O)[C@H](CCc2ccc(Cl)c(Cl)c2)NC(=O)CN(C)C(=O)[C@H](Cc2ccc(C(F)(F)F)cc2)N(CC)C(=O)[C@@H]2CCN2C(=O)[C@H](C)N(C)C1=O [PP0223] ([NMeL]I[NMeA][Aze][NEtPhe(4-CF3)][Sar][hPhe(3,4-Cl2)]P[Ac5c][NMeGly(cPent)][NMeD]-Morpholide; lactam N-11) | 5 | C (A compound having a KD ratio of 0.1 or more and less than 3 is denoted as C) | C (A compound having a KD ratio of 0.1 or more and less than 3 is denoted as C) | – | –
CCCN1C(=O)[C@@H]2CCN2C(=O)[C@H](C)N(C)C(=O)[C@H]([C@@H](C)CC)NC(=O)[C@H](CC(C)C)N(C)C(=O)C[C@@H](C(=O)N2CCC(C)CC2)N(C)C(=O)[C@H](C2CCCC2)N(C)C(=O)C2(CCCC2)NC(=O)[C@@H]2CCCN2C(=O)[C@H](CCc2ccc(C(F)(F)F)c(Cl)c2)NC(=O)CN(C)C(=O)[C@@H]1Cc1ccc(C(F)(F)F)cc1 [PP0185] ([NMeL]I[NMeA][Aze][NPrPhe(4-CF3)][Sar][hPhe(3-Cl-4-CF3)]P[Ac5c][NMeGly(cPent)][NMeD]-{Piperidide(4-Me)}; lactam N-11) | 32.2 | C (A compound having a KD ratio of 0.1 or more and less than 3 is denoted as C) | B (a compound having 3 or more and less than 10 is denoted as B) | – | –
CCCN1C(=O)[C@@H]2CCN2C(=O)[C@H](C)N(C)C(=O)[C@H]([C@@H](C)CC)NC(=O)[C@H](CC(C)C)N(C)C(=O)C[C@@H](C(=O)N2CCOCC2)N(C)C(=O)[C@H](C2CCCC2)N(C)C(=O)C2(CCCC2)NC(=O)[C@@H]2CCCN2C(=O)[C@H](CCc2ccc(C(F)(F)F)c(Cl)c2)NC(=O)CN(C)C(=O)[C@@H]1Cc1ccc(OC)cc1 [PP0134] ([NMeL]I[NMeA][Aze][X41][Sar][hPhe(3-Cl-4-CF3)]P[Ac5c][NMeGly(cPent)][NMeD]-Morpholide; lactam N-11) | 18.5 | C (A compound having a KD ratio of 0.1 or more and less than 3 is denoted as C) | B (a compound having 3 or more and less than 10 is denoted as B) | – | –
CC[C@H](C)[C@@H]1NC(=O)[C@H](CC(C)C)N(C)C(=O)C[C@@H](C(=O)N2CCOCC2)N(C)C(=O)[C@H](C2CCCC2)N(C)C(=O)C2(CCCC2)NC(=O)[C@@H]2CCCN2C(=O)[C@H](CCc2ccc(C(F)(F)F)c(Cl)c2)NC(=O)CN(C)C(=O)[C@H](Cc2ccc(C(F)(F)F)cc2)N(CC(C)C)C(=O)CN(C)C(=O)CN(C)C1=O [PP0121] ([NMeL]I[Sar][Sar][X24][Sar][hPhe(3-Cl-4-CF3)]P[Ac5c][NMeGly(cPent)][NMeD]-Morpholide; lactam N-11) | 29.5 | C (A compound having a KD ratio of 0.1 or more and less than 3 is denoted as C) | C (A compound having a KD ratio of 0.1 or more and less than 3 is denoted as C) | – | –
CCCN1C(=O)CN(C)C(=O)CN(C)C(=O)[C@H]([C@@H](C)CC)NC(=O)[C@H](CC(C)C)N(C)C(=O)C[C@@H](C(=O)N2CCOCC2)N(C)C(=O)[C@H](C2CCCC2)N(C)C(=O)C2(CCCC2)NC(=O)[C@@H]2CCCN2C(=O)[C@H](CCc2ccc(C(F)(F)F)c(Cl)c2)NC(=O)CN(C)C(=O)[C@@H]1Cc1ccc(OC)cc1 [PP0135] ([NMeL]I[Sar][Sar][X41][Sar][hPhe(3-Cl-4-CF3)]P[Ac5c][NMeGly(cPent)][NMeD]-Morpholide; lactam N-11) | 26.1 | B (a compound having 3 or more and less than 10 is denoted as B) | C (A compound having a KD ratio of 0.1 or more and less than 3 is denoted as C) | – | –

More lines, main results first:

IC50 [2] [nM] | Structure (SMILES) | NRAS /KRAS [1, 3] | HRAS /KRAS (HRAS wild-type protein; [4]) | NRAS /KRAS [1, 5] | HRAS /KRAS (HRAS wild-type protein; [6])
60.8 | CCO[C@@H]1C[C@H]2C(=O)NC3(CCC3)C(=O)N(C)[C@@H](C3CCCC3)C(=O)N(C)[C@H](C(=O)N(C)C)CC(=O)N(C)[C@@H](CC3CCCC3)C(=O)N[C@@H]([C@@H](C)CC)C(=O)N(C)CC(=O)N(C)[C@H]3C/C=C\CCN(C3=O)[C@@H](Cc3ccc(C)cc3)C(=O)N(C)CC(=O)N[C@@H](CCc3cc(C)c(C(F)F)c(F)c3)C(=O)N2C1 [PP2676] | A (a compound having 10 or more and less than 20 is denoted as A) | A (a compound having 10 or more and less than 20 is denoted as A) | – | –
2 | CCCN1C(=O)CN(C)C(=O)CN(C)C(=O)[C@H]([C@@H](C)CC)NC(=O)[C@H](CC(C)C)N(C)C(=O)C[C@@H](C(=O)N(C)C)N(C)C(=O)[C@H](C2CCCC2)N(C)C(=O)C2(CCCC2)NC(=O)[C@@H]2CC(F)(F)CN2C(=O)[C@H](CCc2ccc(C(F)(F)F)c(Cl)c2)NC(=O)CN(C)C(=O)[C@@H]1Cc1ccc(C(F)(F)F)cc1 [PP0413] ([NMeL]I[Sar][Sar][NPrPhe(4-CF3)][Sar][hPhe(3-Cl-4-CF3)][Pro(4,4-F2)][Ac5c][NMeGly(cPent)][NMeD]-NMe2; lactam N-11) | – | – | C (A compound having a KD ratio of 0.1 or more and less than 3 is denoted as C) | C (A compound having a KD ratio of 0.1 or more and less than 3 is denoted as C)
6.6 | CCO[C@@H]1C[C@H]2C(=O)NC3(CCC3)C(=O)N(C)[C@@H](C3CCCC3)C(=O)N(C)[C@H](C(=O)N(C)CC)CC(=O)N(C)[C@@H](C(C)C)C(=O)N[C@@H]([C@@H](C)CC)C(=O)N(C)CC(=O)N(C)[C@H]3C/C=C\CCN(C3=O)[C@@H](Cc3ccc(C(F)(F)F)cc3)C(=O)N(C)CC(=O)N[C@@H](CCc3cc(F)c(C(F)(F)F)c(F)c3)C(=O)N2C1 [PP1990] | – | – | A (a compound having 10 or more and less than 20 is denoted as A) | A (a compound having 10 or more and less than 20 is denoted as A)
17.8 | CCC[C@H]1C(=O)N[C@@H]([C@@H](C)CC)C(=O)N(C)CC(=O)N(C)[C@H]2C/C=C\CCN(C2=O)[C@@H](Cc2ccc(C(F)(F)F)cc2)C(=O)N(C)CC(=O)N[C@@H](CCc2cc(F)c(C(F)F)c(F)c2)C(=O)N2C[C@H](OCC)C[C@H]2C(=O)NC2(CC(C)(C)C2)C(=O)N(C)[C@@H](C2CCCC2)C(=O)N(C)[C@H](C(=O)N(C)C)CC(=O)N1C [PP2780] | A (a compound having 10 or more and less than 20 is denoted as A) | A (a compound having 10 or more and less than 20 is denoted as A) | – | –
77.7 | CC[C@H](C)[C@@H]1NC(=O)[C@H](CC(C)C)N(C)C(=O)C[C@@H](C(=O)N2CCOCC2)N(C)C(=O)[C@H](C2CCCC2)N(C)C(=O)C2(CCC2)NC(=O)[C@@H]2CCCN2C(=O)[C@H](CCc2ccc(C(F)(F)F)c(Cl)c2)NC(=O)CN(C)C(=O)[C@H](Cc2ccc(F)cc2)N2CCCCC[C@@H](C2=O)N(C)C(=O)CN(C)C1=O [PP0967] | B (a compound having 3 or more and less than 10 is denoted as B) | B (a compound having 3 or more and less than 10 is denoted as B) | – | –
5.9 | CCO[C@@H]1C[C@H]2C(=O)NC3(CC(C)(C)C3)C(=O)N(C)[C@@H](C(CC)CC)C(=O)N(C)[C@H](C(=O)N(C)C)CC(=O)N(C)[C@@H](COC)C(=O)N[C@@H]([C@@H](C)CC)C(=O)N(C)CC(=O)N(C)[C@H]3C/C=C\CCN(C3=O)[C@@H](Cc3ccc(C(F)(F)F)cc3)C(=O)N(C)CC(=O)N[C@@H](CCc3ccc(C(F)(F)F)c(OC)c3)C(=O)N2C1 [PP2157] | – | – | A (a compound having 10 or more and less than 20 is denoted as A) | A (a compound having 10 or more and less than 20 is denoted as A)
